Experimental findings from US10836706B2, “Bacterial efflux pump inhibitors” (RUTGERS, THE STATE UNIVERSITY OF NEW JERSEY, priority 2016, dated 2020) are described below.

SMILES strings stand for the structures.

For test [1], the system named is Pseudomonas aeruginosa ATCC 27853. The test is described as follows: Test A: MIC-based assay for potentiation of antibiotics that are known efflux pump substrates. Type of test: cell-based. To be noted: antibiotic MIC (e.g., clarithromycin and levofloxacin) in presence vs absence of the EPI compound; EPI at 1.6 to 12.5 g/mL in CAMH broth, 24 hours at 37° C. From the text: (§1) The ability of a compound disclosed herein to inhibit a bacterial efflux pump can be determined using a method like Test A or Test B as described in Example 20 and as shown in Table 1. Test A. Minimum Inhibitory Concentration (MIC)-Based Assay for Potentiation of Antibiotics that are Known Efflux Pump Substrates: MIC-based assays were used to evaluate the impact of potential efflux pump inhibiting (EPI) compounds on the MICs of antibiotics (e.g., clarithromycin and levofloxacin) known to be substrates for Gram-negative bacterial efflux pumps. The assays were conducted in accordance with Clinical and Laboratory Standards Institute (CLSI) guidelines for broth microdilution, with the modification that assays were conducted in the presence and absence of the test EPI compounds. […] Log-phase Gram-negative bacteria were added to 96-well microtiter plates (at 5×10^5 colony forming units (CFU) per mL) containing two-fold serial dilutions of antibiotic in CAMH broth either in the absence or presence of the test EPI compounds. In all assays, each serial dilution of antibiotic was present in duplicate. The final volume in each well was 0.1 mL, and the microtiter plates were incubated aerobically for 24 hours at 37° C. […] The following Gram-negative bacterial strains were included in these assays: Pseudomonas aeruginosa ATCC 27853.

In test [2] the test system is Escherichia coli ATCC 25922. Described as above. The format is cell-based. As to conditions: antibiotic MIC (e.g., clarithromycin and levofloxacin) in presence vs absence of the EPI compound; EPI at 1.6 to 12.5 μg/mL in CAMH broth, 24 hours at 37° C.
Excerpt: as §1, with “Escherichia coli” for “Pseudomonas aeruginosa”, “25922” for “27853.”

`Cl.Cl.Cl.NCCC[C@H](N)CNCc1cc(C(F)(F)F)cc(C(F)(F)F)c1` [Example 1, (S)—N^1-(3,5-bis(trifluoromethyl)benzyl)pentane-1,2,5-triaminium Chloride]: the “Enhanced Activity in P. aeruginosa” value in test [1] was below 2x. The “Enhanced Activity in E. coli” value in test [2] was at least 2x.
In the case of `CC(C)(C)c1cc(CNC[C@@H](N)CCCN)cc(C(C)(C)C)c1.Cl.Cl.Cl` [Example 2, (S)—N^1-(3,5-di-tert-butylbenzyl)pentane-1,2,5-triaminium Chloride], in test [1], the “Enhanced Activity in P. aeruginosa” value is given as below 2x. The “Enhanced Activity in E. coli” value in test [2] is recorded as at least 8x.
With `Cl.Cl.Cl.NCCC[C@H](N)CNCCc1cc(C(F)(F)F)cc(C(F)(F)F)c1` [Example 3, (S)—N^1-(3,5-bis(trifluoromethyl)phenethyl)pentane-1,2,5-triaminium chloride], in test [1], the “Enhanced Activity in P. aeruginosa” value was at least 2x. For the same compound, the “Enhanced Activity in E. coli” value in test [2] is at least 4x.
As for `CC(N)CC[C@H](N)CNCc1cc(C(F)(F)F)cc(C(F)(F)F)c1.Cl.Cl.Cl` (stereo partly drawn) [Example 4, (2S)—N^1-(3,5-bis(trifluoromethyl)benzyl)hexane-1,2,5-triaminium Chloride], the “Enhanced Activity in P. aeruginosa” value in test [1] is on record as below 2x. The “Enhanced Activity in E. coli” value in test [2] is reported as below 2x.
For the compound `CC(C)C(N)CC[C@H](N)CNCc1cc(-c2ccc(F)cc2)cc(-c2ccc(F)cc2)c1.Cl.Cl.Cl` (stereo partly drawn) [Example 5, (2S)—N^1-((4,4″-difluoro-[1,1′:3′,1″-terphenyl]-5′-yl)methyl)-6-methylheptane-1,2,5-triaminium chloride], the “Enhanced Activity in P. aeruginosa” value in test [1] was at least 2x. The “Enhanced Activity in E. coli” value in test [2] is on record as 32 x.
For `Cl.Cl.Cl.NCCC[C@H](N)CNCc1cc(-c2ccc(F)cc2)cc(-c2ccc(F)cc2)c1` [Example 6, (S)—N1-((4,4″-difluoro-[1,1′:3′,1″-terphenyl]-5′-yl)methyl)pentane-1,2,5-triaminium chloride], in test [1], the “Enhanced Activity in P. aeruginosa” value was at least 16x. Further, the “Enhanced Activity in E. coli” value in test [2] is at least 512x.
The like results for `Cl.Cl.Cl.NCCN(CCN)Cc1cc(-c2ccc(F)cc2)cc(-c2ccc(F)cc2)c1` [Example 7, N1-(2-ammonioethyl)-N1-((4,4″-difluoro-[1,1′:3′,1″-terphenyl]-5′-yl)methyl)ethane-1,2-diaminium chloride] were, in that order, at least 16x and at least 512x.
As for `Cl.Cl.Cl.NCCN(CCN)Cc1cc(C(F)(F)F)cc(C(F)(F)F)c1` [Example 8, 2-ammonio-1-((2-ammonioethyl)(3,5-bis(trifluoromethyl)benzyl)-14-azanyl)ethan-1-ylium chloride], in test [1], the “Enhanced Activity in P. aeruginosa” value is below 2x. The “Enhanced Activity in E. coli” value in test [2] is below 2x.
Regarding `CC(C)(CNC[C@@H](N)CCCN)c1cc(-c2ccc(F)cc2)cc(-c2ccc(F)cc2)c1.Cl.Cl.Cl` [Example 9, (S)—N^1-(2-(4,4″-difluoro-[1,1′:3′,1″-terphenyl]-5′-yl)-2-methylpropyl)pentane-1,2,5-triaminium chloride], in test [1], the “Enhanced Activity in P. aeruginosa” value is recorded as at least 2x. For the same compound, in test [2], the “Enhanced Activity in E. coli” value is on record as at least 128 x.
Regarding `Cl.Cl.Cl.NCCC[C@H](N)CNCCc1cc(-c2ccc(F)cc2)cc(-c2ccc(F)cc2)c1` [Example 10, (S)—N1-(2-(4,4″-difluoro-[1,1′:3′,1″-terphenyl]-5′-yl)ethyl)pentane-1,2,5-triaminium chloride], in test [1], the “Enhanced Activity in P. aeruginosa” value is listed as at least 64x. For the same compound, the “Enhanced Activity in E. coli” value in test [2] is at least 1024x.
In the case of `Cl.Cl.NCCC[C@@H](N)COc1cc(-c2ccc(F)cc2)cc(-c2ccc(F)cc2)c1` [Example 11, (R)-5-((4,4″-difluoro-[1,1′:3′,1″-terphenyl]-5′-yl)oxy)pentane-1,4-diaminium chloride], in test [1], the “Enhanced Activity in P. aeruginosa” value was at least 16x. Further, the “Enhanced Activity in E. coli” value in test [2] was at least 1024 x.
For `Cl.Cl.NC[C@H](N)CCc1cc(-c2ccc(F)cc2)cc(-c2ccc(F)cc2)c1` [Example 12, (R)-4-(4,4″-difluoro-[1,1′:3′,1″-terphenyl]-5′-yl)butane-1,2-diaminium chloride], in that order: below 2x and at least 32x.
Regarding `Cl.Cl.NCCC[C@H](N)COc1cc(-c2ccc(F)cc2)cc(-c2ccc(F)cc2)c1` [Example 13, (S)-5-((4,4″-difluoro-[1,1′:3′,1″-terphenyl]-5′-yl)oxy)pentane-1,4-diaminium chloride], in test [1], the “Enhanced Activity in P. aeruginosa” value is below 2x. Besides, the “Enhanced Activity in E. coli” value in test [2] came to 256x.
As to `CC(C)C(N)CC[C@H](N)COc1cc(-c2ccc(F)cc2)cc(-c2ccc(F)cc2)c1.Cl.Cl` (stereo partly drawn) [Example 14, (2S)-1-((4,4″-difluoro-[1,1′:3′,1″-terphenyl]-5′-yl)oxy)-6-methylheptane-2,5-diaminium], in test [1], the “Enhanced Activity in P. aeruginosa” value is below 2x. Also, the “Enhanced Activity in E. coli” value in test [2] is reported as below 2x.
Regarding `NCCC[C@H](N)CNCc1cc(-c2ccccc2)cc(-c2ccccc2)c1` [Example 15, (S)—N1-([1,1′:3′,1″-terphenyl]-5′-ylmethyl)pentane-1,2,5-triaminium Chloride], the “Enhanced Activity in P. aeruginosa” value in test [1] is on record as at least 16x. Moreover, the “Enhanced Activity in E. coli” value in test [2] is reported as at least 128x.
The like results for `Cl.Cl.NCCC[C@H](N)COc1cc(-c2ccc(C(F)(F)F)cc2)cc(-c2ccc(C(F)(F)F)cc2)c1` [Example 16, (S)-5-((4,4″-bis(trifluoromethyl)-[1,1′:3′,1″-terphenyl]-5′-yl)oxy)pentane-1,4-diaminium chloride] were, in that order, at least 2x and below 2x.
Regarding `COc1ccc(-c2cc(OC[C@@H](N)CCCN)cc(-c3ccc(OC)cc3)c2)cc1.Cl.Cl` [Example 17, (S)-5-((4,4″-dimethoxy-[1,1′:3′,1″-terphenyl]-5′-yl)oxy)pentane-1,4-diaminium chloride], the “Enhanced Activity in P. aeruginosa” value in test [1] is at least 2x. The “Enhanced Activity in E. coli” value in test [2] is recorded as at least 1024x.
As to `Cl.Cl.NCCC[C@@H](N)COc1cc(-c2cccc(F)c2)cc(-c2cccc(F)c2)c1` [Example 18, (R)-5-((3,3″-difluoro-[1,1′:3′,1″-terphenyl]-5′-yl)oxy)pentane-1,4-diaminium chloride], in test [1], the “Enhanced Activity in P. aeruginosa” value was at least 1x. Also, in test [2], the “Enhanced Activity in E. coli” value is recorded as at least 512x.
The like results for `Cl.Cl.NCCC[C@@H](N)COc1cc(-c2ccc(F)c(F)c2)cc(-c2ccc(F)c(F)c2)c1` [Example 19, (R)-5-((3,3″,4,4″-tetrafluoro-[1,1′:3′,1″-terphenyl]-5′-yl)oxy)pentane-1,4-diaminium chloride] were, in that order, at least 1x and at least 2x.
